In ChEMBL document CHEMBL1201862, “PubChem BioAssay data set” (2004):
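Where inhibition never reached the appropriate level, the endpoint shown equals the highest concentration tested. Otherwise, values were interpolated linearly from a five-concentration, 48-hour dose response in 96-well plates. At the GI50, growth is halved.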 Calls of active or inactive are those of the source. No stated cut-off is given here; in the data, active = GI50 up to about 1.1 µM and inactive = higher.

Tests used:
Assay in all cases: NCI tumour cell line growth inhibition, 48 h
[1] = test system: U-251
[2] = test system: K562
[3] = test system: TK-10
[4] = test system: Hs-578T
[5] = test system: HCC 2998
[6] = test system: NCI/ADR-RES
[7] = test system: COLO 205
[8] = test system: MDA-MB-435
[9] = test system: SN12C
[10] = test system: 786-0
[11] = test system: OVCAR-5
[12] = test system: UACC-257
[13] = test system: KM12
[14] = test system: IGROV-1
[15] = test system: HT-29
[16] = test system: SF-539
[17] = test system: HCT-116
[18] = test system: Malme-3M
[19] = test system: NCI-H226
[20] = test system: SNB-75

Row | SMILES | GI50 [1] | GI50 [2] | GI50 [3] | GI50 [4] | GI50 [5] | GI50 [6] | GI50 [7] | GI50 [8] | GI50 [9] | GI50 [10] | GI50 [11] | GI50 [12] | GI50 [13] | GI50 [14] | GI50 [15] | GI50 [16] | GI50 [17] | GI50 [18] | GI50 [19] | GI50 [20]
1 | Oc1nnc(-c2ccc(F)cc2)cc1-c1ccccc1 | 35.8 µM (inactive) | > 100 µM (inactive) | 71.4 µM (inactive) | 48.3 µM (inactive) | 78.5 µM (inactive) | > 100 µM (inactive) | > 100 µM (inactive) | > 100 µM (inactive) | > 100 µM (inactive) | 45.7 µM (inactive) | > 100 µM (inactive) | > 100 µM (inactive) | > 100 µM (inactive) | 72.8 µM (inactive) | > 100 µM (inactive) | 35.9 µM (inactive) | > 100 µM (inactive) | 97.5 µM (inactive) | > 100 µM (inactive) | –
2 | COc1ccc(CC(C)NCC(O)c2ccc(O)c(NC=O)c2)cc1 (stereo unspecified) | > 100 µM (inactive) | > 100 µM (inactive) | > 100 µM (inactive) | > 100 µM (inactive) | – | > 100 µM (inactive) | > 100 µM (inactive) | > 100 µM (inactive) | 20.1 µM (inactive) | > 100 µM (inactive) | > 100 µM (inactive) | > 100 µM (inactive) | > 100 µM (inactive) | > 100 µM (inactive) | 86.7 µM (inactive) | > 100 µM (inactive) | 43.4 µM (inactive) | > 100 µM (inactive) | > 100 µM (inactive) | > 100 µM (inactive)
3 | CCOC(=O)c1nc2ccccc2nc1Oc1cc(OC)c(OC)c(OC)c1 | 32.6 µM (inactive) | – | 51.2 µM (inactive) | 27.1 µM (inactive) | > 100 µM (inactive) | > 100 µM (inactive) | > 100 µM (inactive) | > 100 µM (inactive) | > 100 µM (inactive) | 38.1 µM (inactive) | > 100 µM (inactive) | > 100 µM (inactive) | > 100 µM (inactive) | > 100 µM (inactive) | > 100 µM (inactive) | 39.4 µM (inactive) | > 100 µM (inactive) | > 100 µM (inactive) | – | 44.3 µM (inactive)
4 | Cc1c(Cl)c(=O)oc2cc(OCC(O)COC(C)C)ccc12 (stereo unspecified) | 44.9 µM (inactive) | 23.3 µM (inactive) | 35.2 µM (inactive) | 48.4 µM (inactive) | 16.8 µM (inactive) | 75.7 µM (inactive) | 14 µM (inactive) | 60.3 µM (inactive) | – | 39.9 µM (inactive) | > 100 µM (inactive) | 74 µM (inactive) | 50.5 µM (inactive) | 65.8 µM (inactive) | 40.2 µM (inactive) | – | 43 µM (inactive) | 20 µM (inactive) | – | –
5 | O=C(Nc1nncs1)NS(=O)(=O)n1c(=S)sc2ccccc21 | > 100 µM (inactive) | > 100 µM (inactive) | > 100 µM (inactive) | > 100 µM (inactive) | > 100 µM (inactive) | > 100 µM (inactive) | > 100 µM (inactive) | > 100 µM (inactive) | > 100 µM (inactive) | > 100 µM (inactive) | > 100 µM (inactive) | > 100 µM (inactive) | > 100 µM (inactive) | > 100 µM (inactive) | > 100 µM (inactive) | > 100 µM (inactive) | > 100 µM (inactive) | > 100 µM (inactive) | – | > 100 µM (inactive)
6 | CCNC(=S)Nc1c(C#N)c2n(c1C(=O)OCC)CCCCC2 | > 100 µM (inactive) | > 100 µM (inactive) | > 100 µM (inactive) | 35.3 µM (inactive) | > 100 µM (inactive) | > 100 µM (inactive) | > 100 µM (inactive) | > 100 µM (inactive) | – | 76.4 µM (inactive) | – | > 100 µM (inactive) | > 100 µM (inactive) | > 100 µM (inactive) | > 100 µM (inactive) | 64.7 µM (inactive) | > 100 µM (inactive) | – | > 100 µM (inactive) | > 100 µM (inactive)
7 | CCC(C)C(C(=O)N/N=C1/SCC(=O)N1c1ccccc1)C(=O)N/N=C1/SCC(=O)N1c1ccccc1 (stereo unspecified) | 36.8 µM (inactive) | > 100 µM (inactive) | > 100 µM (inactive) | 32.5 µM (inactive) | > 100 µM (inactive) | > 100 µM (inactive) | > 100 µM (inactive) | 17.9 µM (inactive) | > 100 µM (inactive) | > 100 µM (inactive) | > 100 µM (inactive) | > 100 µM (inactive) | 27.5 µM (inactive) | > 100 µM (inactive) | > 100 µM (inactive) | > 100 µM (inactive) | 23 µM (inactive) | 21.2 µM (inactive) | – | 44.9 µM (inactive)
8 | CC(=O)/C(=C\I)c1ccccc1 | 2.26 µM (inactive) | 0.481 µM (active) | 13.9 µM (inactive) | 3.44 µM (inactive) | – | 10 µM (inactive) | 1.71 µM (inactive) | 3.86 µM (inactive) | 1.99 µM (inactive) | 2.12 µM (inactive) | 1.49 µM (inactive) | 3.04 µM (inactive) | 3.57 µM (inactive) | 2.1 µM (inactive) | 0.995 µM (active) | 18 µM (inactive) | 2.26 µM (inactive) | 1.67 µM (inactive) | 21.2 µM (inactive) | 3.94 µM (inactive)
